Consider 24 compounds from patent publication US12441689B2 (EpiVario, Inc., priority 2019, dated 2025).

The term IC50 denotes the concentration at which inhibition is half-maximal.

Chain of human ACSS2 protein (Q9NR19 whole entry): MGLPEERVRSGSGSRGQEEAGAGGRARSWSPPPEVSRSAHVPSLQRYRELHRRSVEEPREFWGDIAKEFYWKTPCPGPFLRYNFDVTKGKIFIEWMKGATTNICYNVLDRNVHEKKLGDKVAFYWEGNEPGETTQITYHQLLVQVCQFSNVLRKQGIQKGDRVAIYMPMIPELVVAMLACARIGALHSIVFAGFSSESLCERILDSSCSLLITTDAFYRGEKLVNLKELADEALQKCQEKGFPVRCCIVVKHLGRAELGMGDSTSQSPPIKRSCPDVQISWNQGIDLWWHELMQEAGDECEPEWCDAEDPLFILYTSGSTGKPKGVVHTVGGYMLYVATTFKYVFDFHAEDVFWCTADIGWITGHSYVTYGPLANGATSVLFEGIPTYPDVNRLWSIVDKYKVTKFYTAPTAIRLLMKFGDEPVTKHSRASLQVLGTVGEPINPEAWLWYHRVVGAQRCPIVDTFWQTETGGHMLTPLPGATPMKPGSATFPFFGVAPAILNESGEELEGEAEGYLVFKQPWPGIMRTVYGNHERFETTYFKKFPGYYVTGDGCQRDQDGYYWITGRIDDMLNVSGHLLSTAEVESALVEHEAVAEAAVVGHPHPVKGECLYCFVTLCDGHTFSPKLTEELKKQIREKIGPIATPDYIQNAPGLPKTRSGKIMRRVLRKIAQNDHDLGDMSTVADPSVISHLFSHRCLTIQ

For this assay, the target named is human ACSS2 protein (Homo sapiens (Human), UniProt Q9NR19). Put plainly: ACSS2 Cell-Free Activity Assay (Cell-Free IC50). The note with it: 10 nM human ACSS2 protein, 90 minutes at 37 C, pyrophosphatase-coupled, Biomol Green absorbance at 620 nm; read-out: ACSS2 Biochemical IC50. The source says:
ACSS2 Cell-Free Activity Assay (Cell-Free IC50)
As for “1-(4-(difluoromethoxy)phenyl)-3-methyl-4-(1-((4-(methylsulfonyl)phenyl)amino)-1H-1,2,3-triazol-4-yl)-1H-pyrazol-5(4H)-one [Compound 195]”, the IC50 is over 100 nM.

As for `CCC1(C(=O)Nc2cccc(C(C)(F)F)c2)C(=O)N(c2ccc(OC(F)F)c(-c3ccccc3)c2)N=C1C` (stereo not drawn) [Compound 100, N-(3-(1,1-difluoroethyl)phenyl)-1-(6-(difluoromethoxy)-[1,1′-biphenyl]-3-yl)-4-ethyl-3-methyl-5-oxo-4,5-dihydro-1H-pyrazole-4-carboxamide], the IC50 is over 100 nM.

Consider `CC1=NN(c2ccc(OC(F)F)cc2)C(=O)C1C(=O)Nc1cccc(C(F)(F)C2CCC2)c1` (stereo not drawn) [Compound 101, N-(3-(cyclobutyldifluoromethyl)phenyl)-1-(4-(difluoromethoxy)phenyl)-3-methyl-5-oxo-4,5-dihydro-1H-pyrazole-4-carboxamide], for which the IC50 lay within 1 to 100 nM.

For `CCC(F)(F)c1cccc(NC(=O)c2cc(C)nc(-c3ccc(OC(F)F)cc3)c2)c1` [Compound 102, 2-[4-(difluoromethoxy)phenyl]-N-[3-(1,1-difluoropropyl)phenyl]-6-methyl-pyridine-4-carboxamide], the IC50 is over 100 nM.

Regarding `CCC(F)(F)c1cccc(NC(=O)c2nc(C)c(-c3ccc(OC(F)F)c(-c4ccccc4)c3)nc2C)c1` [Compound 103, 5-(6-(difluoromethoxy)-[1,1′-biphenyl]-3-yl)-N-(3-(1,1-difluoropropyl)phenyl)-3,6-dimethylpyrazine-2-carboxamide], the IC50 was over 100 nM.

As for `Cc1nc(-c2ccc(OC(F)F)c(-c3ccccc3)c2)c(C)nc1C(=O)Nc1cccc(C(C)(F)F)c1` [Compound 104, N-(3-(1,1-difluoroethyl)phenyl)-5-(6-(difluoromethoxy)-[1,1′-biphenyl]-3-yl)-3,6-dimethylpyrazine-2-carboxamide], the IC50 was over 100 nM.

For the compound `CCC(F)(F)c1cccc(NC(=O)c2nc(C)c(-c3ccc(OC(F)F)cc3)nc2C)c1` [Compound 105, 5-(4-(difluoromethoxy)phenyl)-N-(3-(1,1-difluoropropyl)phenyl)-3,6-dimethylpyrazine-2-carboxamide], the IC50 is over 100 nM.

For `Cc1oc(-c2ccc3cc[nH]c3c2)nc1C(=O)Nc1cccc(C(C)(F)F)c1` [Compound 107, N-[3-(1,1-difluoroethyl)phenyl]-2-(1H-indol-6-yl)-5-methyl-oxazole-4-carboxamide], the half-maximal inhibitory concentration (IC50) is over 100 nM.

Take `Cc1c(C(=O)Nc2cccc(C(C)(F)F)c2)c(=O)n(-c2ccc3cc[nH]c3c2)n1Cc1ccccc1` [Compound 108, 1-benzyl-N-[3-(1,1-difluoroethyl)phenyl]-2-(1H-indol-6-yl)-5-methyl-3-oxo-pyrazole-4-carboxamide]: the IC50 was over 100 nM.

Consider `CC1=NN(c2ccc(C=C(c3ccccc3)c3ccccc3)c(-c3cccnc3)c2)C(=O)C1C(=O)Nc1cccc(C(C)(F)F)c1` (stereo not drawn) [Compound 109], for which the IC50 lay within 1 to 100 nM.

On to `CC1=NN(c2ccc(C=C(c3ccccc3)c3ccccc3)c(Br)c2)C(=O)C1C(=O)Nc1cccc(C(C)(F)F)c1` (stereo not drawn) [Compound 110], for which the IC50 lay in the range of 1 to 100 nM.

Regarding `CCCC1(C(=O)Nc2cccc(C(C)(F)F)c2)C(=O)N(c2ccc(OC(F)F)c(-c3ccccc3)c2)N=C1C` (stereo not drawn) [Compound 111, N-(3-(1,1-difluoroethyl)phenyl)-1-(6-(difluoromethoxy)-[1,1′-biphenyl]-3-yl)-3-methyl-5-oxo-4-propyl-4,5-dihydro-1H-pyrazole-4-carboxamide], the IC50 is over 100 nM.

For `CCC(F)(F)c1cccc(NC(=O)c2nc(-c3ccc(OC(F)F)cc3)oc2C)c1` [Compound 112, 2-(4-(difluoromethoxy)phenyl)-N-(3-(1,1-difluoropropyl)phenyl)-5-methyloxazole-4-carboxamide], the IC50 was 1 to 100 nM.

For the compound `Cc1oc(-c2ccc(OC(F)F)cc2)nc1C(=O)Nc1cccc(C(C)(F)F)c1` [Compound 113, N-(3-(1,1-difluoroethyl)phenyl)-2-(4-(difluoromethoxy)phenyl)-5-methyloxazole-4-carboxamide], the 50% inhibitory concentration (IC50) was over 100 nM.

In the case of `CCC(F)(F)c1cccc(NC(=O)c2nc(-c3ccc(OC)cc3)oc2C)c1` [Compound 116, N-(3-(1,1-difluoropropyl)phenyl)-2-(4-methoxyphenyl)-5-methyloxazole-4-carboxamide], the IC50 was over 100 nM.

As for `CCC(F)(F)c1cccc(NC(=O)c2nc(-c3ccc(OC(F)F)c(-c4ccccc4)c3)cnc2C)c1` [Compound 117, 6-[4-(difluoromethoxy)-3-phenyl-phenyl]-N-[3-(1,1-difluoropropyl)phenyl]-3-methyl-pyrazine-2-carboxamide], the IC50 was over 100 nM.

`Cc1ncc(-c2ccc(OC(F)F)c(-c3ccccc3)c2)nc1C(=O)Nc1cccc(C(C)(F)F)c1` [Compound 118, N-[3-(1,1-difluoroethyl)phenyl]-6-[4-(difluoromethoxy)-3-phenyl-phenyl]-3-methyl-pyrazine-2-carboxamide]: the IC50 is over 100 nM.

Turning to `CCC(F)(F)c1cccc(NC(=O)c2cnc(-c3ccc(OC(F)F)c(-c4ccccn4)c3)nc2C)c1` [Compound 119, 2-(4-(difluoromethoxy)-3-(pyridin-2-yl)phenyl)-N-(3-(1,1-difluoropropyl)phenyl)-4-methylpyrimidine-5-carboxamide], the IC50 was over 100 nM.

Take `Cc1nc(-c2ccc(OC(F)F)c(-c3ccccn3)c2)ncc1C(=O)Nc1cccc(C(C)(F)F)c1` [Compound 120, N-(3-(1,1-difluoroethyl)phenyl)-2-(4-(difluoromethoxy)-3-(pyridin-2-yl)phenyl)-4-methylpyrimidine-5-carboxamide]: the IC50 is over 100 nM.

For `CCC(F)(F)c1cccc(NC(=O)C2C(=O)N(c3cc(Cc4ccccc4)c(OC)c(-c4ccccc4)c3)N=C2C)c1` (stereo not drawn) [Compound 121, 1-(5-benzyl-6-methoxy-[1,1′-biphenyl]-3-yl)-N-(3-(1,1-difluoropropyl)phenyl)-3-methyl-5-oxo-4,5-dihydro-1H-pyrazole-4-carboxamide], the IC50 was 1 to 100 nM.

`COc1c(Cc2ccccc2)cc(N2N=C(C)C(C(=O)Nc3cccc(C(C)(F)F)c3)C2=O)cc1-c1ccccc1` (stereo not drawn) [Compound 122, 1-(5-benzyl-6-methoxy-[1,1′-biphenyl]-3-yl)-N-(3-(1,1-difluoroethyl)phenyl)-3-methyl-5-oxo-4,5-dihydro-1H-pyrazole-4-carboxamide]: the IC50 is under 1 nM.

Consider `CCC(F)(F)c1cccc(NC(=O)c2nc(-c3ccc(OC(F)F)c(-c4ccccc4)c3)oc2C)c1` [Compound 123, 2-[4-(difluoromethoxy)-3-phenyl-phenyl]-N-[3-(1,1-difluoropropyl)phenyl]-5-methyl-oxazole-4-carboxamide], for which the IC50 is over 100 nM.

Regarding `Cc1oc(-c2ccc(OC(F)F)c(-c3ccccc3)c2)nc1C(=O)Nc1cccc(C(C)(F)F)c1` [Compound 124, N-[3-(1,1-difluoroethyl)phenyl]-2-[4-(difluoromethoxy)-3-phenyl-phenyl]-5-methyl-oxazole-4-carboxamide], the IC50 is over 100 nM.

In the case of `CCC(F)(F)c1cccc(NC(=O)c2nc(-c3ccc(OC(F)F)cc3)cnc2C)c1` [Compound 125, 6-(4-(difluoromethoxy)phenyl)-N-(3-(1,1-difluoropropyl)phenyl)-3-methylpyrazine-2-carboxamide], the IC50 was over 100 nM.
